According to US20060029674A1, “Stable amorphous Cefdinir” (priority 2004, published 2006):

Experiments:
[1] = Physical stability of the isolated amorphous material; assay type: physicochemical; details: isolated by evaporating a methanolic solution
Source text: Amorphous Cefdinir was isolated by evaporating a methanolic solution of cefdinir hydrate. […] Stable amorphous Cefdinir with Eudragit EPO was made and isolated by evaporating a methanolic solution. […] Amorphous cefdinir with PVP was made and isolated by evaporating a methanolic solution.

[2] = Glass transition temperature (Tg) by thermally stimulated current spectroscopy; assay type: physicochemical
Procedure: The glass transition temperature (Tg) determined by thermally stimulated current spectroscopy was 67° C. This value of 67° C. is considerably higher than ambient temperature, and as a rule of thumb high Tg values are desirable for room temperature stability.
The glass transition temperature (Tg) determined by thermally stimulated current spectroscopy was 102° C. […] The higher Tg observed for the cefdinir-EPO sample relative to the individual components further confirms specific interaction.
The glass transition temperature (Tg) determined by thermally stimulated current spectroscopy was 95° C.

[3] = material taught in U.S. Pat. No. 4,559,334; cited from earlier work

| physical stability of the amorphous material [1] | glass transition temperature (Tg) [2] [°C] | Compound | stability of prior-art amorphous material [3] |
| --- | --- | --- | --- |
| physically stable | 67 | C=CC1=C(C(=O)O)N2C(=O)C(NC(=O)C(=NO)c3csc(N)n3)[C@H]2SC1 (single isomer, unassigned) [Amorphous Cefdinir, 7-[2-(2-aminothiazol-4-yl)-2-hydroxyiminoacetamido]-3-vinyl-3-cephem-4-carboxylic acid (syn isomer)] | – |
| – | – | C=CC1=C(C(=O)O)N2C(=O)[C@@H](NC(=O)/C(=N\O)c3csc(N)n3)[C@H]2SC1 [crystalline-like amorphous material] | unstable |
